Reference: patent US7034018B2, “Substituted pyrrole mannich bases to combat pain and allergic reactions” (Gruenenthal GmbH, priority 1999, dated 2006)

Target: T1, 5-HT transporter (Rattus norvegicus, UniProt P31652)
T1 construct: these vesicular particles were isolated from the pons and medulla oblongata region of the male rat brain; from tissue; host or cells: rat brain synaptosomes (P2 fraction) from the pons and medulla oblongata of male rats
Test: Inhibition of serotonin re-uptake (5-HT uptake inhibition) in rat brain synaptosomes
Format: biochemical
Set-up: concentration or dose not given beside the values
Conditions: synaptosomes (P2 fraction) from pons and medulla oblongata region of male rat brain; means from 2 parallel experiments
Description: The investigations of the inhibition of serotonin re-uptake (5-HT uptake inhibition) were carried out by the methods such as are described in M. Ch. Frink, H.-H.-Hennies, W. Englberger, M. Haurand and B. Wilffert, Arzneim.-Forsch./Drug. Res. 46 (III), 11, 1996, pages 1029-1036. They are introduced herewith as reference and thus form part of the disclosure.
To carry out these investigations, synaptosomes were freshly isolated from rat brain areas. In each case the so-called “P2” fraction was used, which was prepared according to the instructions in E. G. Gray and V. P. Whittaker, J. Anat. 76, pages 79-88, 1962. This literature is introduced herewith as reference and thus forms part of the disclosure. For determination of the 5-HT uptake, these vesicular particles were isolated from the pons and medulla oblongata region of the male rat brain.
The following characteristic data were determined for the 5-HT transporter: • 5-HT uptake: Km=0.084±0.011 μM • Vmax: 38.13±4.52 pmol/min/mg protein. The results of the investigations are in each case stated as means from 2 parallel experiments.

T1 sequence (P31652 whole entry): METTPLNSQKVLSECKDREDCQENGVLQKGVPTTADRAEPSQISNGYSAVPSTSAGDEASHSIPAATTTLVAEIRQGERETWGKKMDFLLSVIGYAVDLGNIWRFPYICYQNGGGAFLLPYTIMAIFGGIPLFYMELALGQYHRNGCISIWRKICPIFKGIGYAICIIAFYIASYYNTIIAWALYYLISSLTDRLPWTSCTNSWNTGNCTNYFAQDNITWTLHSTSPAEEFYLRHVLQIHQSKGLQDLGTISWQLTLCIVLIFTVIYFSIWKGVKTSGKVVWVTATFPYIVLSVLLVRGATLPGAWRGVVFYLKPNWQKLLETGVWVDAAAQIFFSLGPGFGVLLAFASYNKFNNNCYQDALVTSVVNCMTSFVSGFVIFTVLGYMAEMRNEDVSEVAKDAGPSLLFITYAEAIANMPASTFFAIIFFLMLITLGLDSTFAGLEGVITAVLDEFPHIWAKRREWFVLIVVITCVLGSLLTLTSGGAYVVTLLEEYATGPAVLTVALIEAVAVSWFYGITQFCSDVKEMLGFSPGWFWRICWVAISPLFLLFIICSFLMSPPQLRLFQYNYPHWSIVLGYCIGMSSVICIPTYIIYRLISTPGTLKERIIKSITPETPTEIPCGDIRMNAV

Row | SMILES | Inhibition of 5HT uptake in % [%]
1 | N#CCCn1cccc1C(c1ccccc1F)N1CCCCC1 (centres unmarked) [Example 22, 3-{2-[(2-Fluoro-phenyl)-piperidin-1-yl-methyl]-pyrrol-1-yl}-propionitrile] | 83
2 | Brc1ccc(C(c2cccn2-c2ccccc2)N2CCCC2)cc1 (centres unmarked) [Example 23, 2-[(4-Bromo-phenyl)-pyrrolidin-1-yl-methyl]-1-phenyl-1H-pyrrole] | 57
3 | Cc1cccc(C(c2cccn2-c2ccccc2N)N2CCCCC2)c1 (centres unmarked) [Example 24, 2-[2-(Piperidin-1-yl-m-tolyl-methyl)-pyrrol-1-yl]-phenylamine] | 59
4 | Fc1cc(Br)ccc1C(c1cccn1Cc1ccccn1)N1CCCC1 (centres unmarked) [Example 25, 2-{2-[(4-Bromo-2-fluoro-phenyl)-pyrrolidin-1-yl-methyl]-pyrrol-1-ylmethyl}-pyridine] | 52
5 | c1ccc(Oc2cccc(C(c3cccn3Cc3ccccn3)N3CCCCC3)c2)cc1 (centres unmarked) [Example 26, 2-{2-[(3-Phenoxy-phenyl)-piperidin-1-yl-methyl]-pyrrol-1-ylmethyl}-pyridine] | 71
6 | NC(=S)c1ccccc1-n1cccc1C(c1cccc(Oc2ccccc2)c1)N1CCCCC1 (centres unmarked) [Example 27, 2-{2-[(3-Phenoxy-phenyl)-piperidin-1-yl-methyl]-pyrrol-1-yl}-thiobenzamide] | 44
7 | Fc1ccc(C(c2cccn2CCCl)N2CCCCC2)cc1 (centres unmarked) [Example 28, 1-[[1-(2-Chloro-ethyl)-1H-pyrrol-2-yl]-(4-fluoro-phenyl)-methyl]-piperidine] | 40
8 | OCCn1cccc1C(c1cccc(Oc2ccccc2)c1)N1CCCCC1 (centres unmarked) [Example 29, 2-{2-[(3-Phenoxy-phenyl)-piperidin-1-yl-methyl]-pyrrol-1-yl}-ethanol] | 48
9 | Cc1cccc(C(c2cccn2CCCO)N2CCCCC2)c1 (centres unmarked) [Example 30, 3-[2-(Piperidin-1-yl-m-tolyl-methyl)-pyrrol-1-yl]-propan-1-ol] | 43
10 | OCCCn1cccc1C(c1ccc(F)cc1)N1CCCCC1 (centres unmarked) [Example 31, 3-{2-[(4-Fluoro-phenyl)-piperidin-1-yl-methyl]-pyrrol-1-yl}-propan-1-ol] | 50
11 | Cn1cccc1C(c1ccc(F)cc1)N1CCCCC1 (centres unmarked) [Example 32, 1-[(4-Fluoro-phenyl)-(1-methyl-1H-pyrrol-2-yl)-methyl]-piperidine] | 42
12 | Cn1cccc1C(c1ccc(C(F)(F)F)cc1)N1CCCCC1 (centres unmarked) [Example 33, 1-[(1-Methyl-1H-pyrrol-2-yl)-(4-trifluoromethyl-phenyl)-methyl]-piperidine] | 55
13 | Nc1ccccc1-n1cccc1C(c1c(F)cccc1Cl)N1CCCC1 (centres unmarked) [Example 34, 2-{2-[(2-Chloro-6-fluoro-phenyl)-pyrrolidin-1-yl-methyl]-pyrrol-1-yl}-phenylamine] | 39
14 | Brc1cccc(C(c2cccn2Cc2ccccn2)N2CCCC2)c1 (centres unmarked) [Example 35, 2-{2-[(3-Bromo-phenyl)-pyrrolidin-1-yl-methyl]-pyrrol-1-ylmethyl}-pyridine] | 43
15 | Fc1ccc(C(c2cccn2Cc2ccccn2)N2CCCC2)cc1Br (centres unmarked) [Example 36, 2-{2-[(3-Bromo-4-fluoro-phenyl)-pyrrolidin-1-yl-methyl]-pyrrol-1-ylmethyl}-pyridine] | 63
16 | Fc1cccc(Cl)c1C(c1cccn1Cc1ccccn1)N1CCCC1 (centres unmarked) [Example 37, 2-{2-[(2-Chloro-6-fluoro-phenyl)-pyrrolidin-1-yl-methyl]-pyrrol-1-ylmethyl}-pyridine] | 39
17 | N#Cc1ccc(C(c2cccn2Cc2ccccn2)N2CCCC2)cc1 (centres unmarked) [Example 38, 4-[(1-Pyridin-2-ylmethyl-1H-pyrrol-2-yl)-pyrrolidin-1-yl-methyl]-benzonitrile] | 45
18 | Fc1ccc(-n2cccc2C(c2ccc(F)c(Br)c2)N2CCCC2)cc1 (centres unmarked) [Example 39, 2-[(3-Bromo-4-fluoro-phenyl)-pyrrolidin-1-yl-methyl]-1-(4-fluoro-phenyl)-1H-pyrrole] | 37
19 | O=C(O)c1ccccc1-n1cccc1C(c1cc(Br)ccc1F)N1CCCC1 (centres unmarked) [Example 40, 2-{2-[(5-Bromo-2-fluoro-phenyl)-pyrrolidin-1-yl-methyl]-pyrrol-1-yl}-benzoic acid] | 51
20 | NC(=S)c1ccccc1-n1cccc1C(c1cc(Br)ccc1F)N1CCCC1 (centres unmarked) [Example 41, 2-{2-[(5-Bromo-2-fluoro-phenyl)-pyrrolidin-1-yl-methyl]-pyrrol-1-yl}-thiobenzamide] | 41
21 | CC(C)(C)c1ccc(C(c2cccn2C(C)(C)C)N2CCCC2)cc1 (centres unmarked) [Example 42, 1-tert-Butyl-2-[(4-tert-butyl-phenyl)-pyrrolidin-1-yl-methyl]-1H-pyrrole] | 53

System: phenylquinone-induced writhing in mice
Test: Analgesia test in the phenylquinone-induced writhing test in mice
Format: in vivo
Conditions: male NMRI mice; standard dose of 10 mg/kg, intravenous, 10 minutes before phenylquinone i.p.
Description: The in-depth investigation for analgesic activity was carried out in the phenylquinone-induced writhing in mice (modified by I. C. Hendershot, J. Forsaith, J. Pharmacol. Exp. Ther. 125, 237-240 (1959)). Male NMRI mice weighing 25-30 g were used for this. Groups of 10 animals per substance dose received 0.3 ml/mouse of a 0.02% aqueous solution of phenylquinone (phenylbenzoquinone, Sigma, Deisenhofen; preparation of the solution with the addition of 5% ethanol and storage in a water bath at 45° C.) administered intraperitoneally 10 minutes after intravenous administration of the test substances. The animals were placed individually in observation cages. The number of pain-induced stretching movements (so-called writhing reactions=straightening of the body with stretching of the hind extremities) were counted by means of a push-button counter for 5-20 minutes after the administration of phenylquinone. Animals which received only physiological saline solution were also run as a control.
The substances were tested in the standard dose of 10 mg/kg. The inhibition of the writhing reactions by a substance was calculated according to the following equation: [formula]

Row | SMILES | Inhibition of the Writhing reaction in % [%]
22 | Cn1cccc1C(c1ccccc1)N1CCCC1 (centres unmarked) [Example 15, 1-Methyl-2-(phenylpyrrolidin-1-yl-methyl)-1H-pyrrole] | 87
23 | CN(C)C(c1ccccc1)c1cccn1C (centres unmarked) [Example 16, Dimethyl-[(1-methyl-1H-pyrrol-2-yl)-phenylmethyl]-amine] | 17
